Data reported in patent US20140213583A1, “PI3K Inhibitor for Use in the Treatment of Bone Cancer or for Preventing Metastatic Dissemination Primary Cancer Cells into the Bone” (NOVARTIS AG, priority 2011, published 2014).
Entries after “also recorded” stand apart in the source; their conditions may differ.

How the values were obtained:
[1] = from reference (8); cited from earlier work
[2] = tested on: 453-EGFP cells (MDA-MB-453 human breast cancer cells expressing EGFP); test: Metastasis therapy with Compound A in Rag2-/-;Il2rg-/- mice challenged i.v. with 453-EGFP cells; type: in vivo; details: 50 mg/kg per os daily
From the text: Rag2^−/−;Il2rg^−/− breeders were kindly given by Drs. T. Nomura and M. Ito of the Central Institute for Experimental Animals (Kawasaki, Japan). Mice were then bred in our animal facilities under sterile conditions. Athymic Crl:CD-1-Foxn1^nu/nu mice (referred to as nude mice) were purchased from Charles River Italy and kept under sterile conditions. Experiments were authorized by the institutional review board of the University of Bologna and done according to Italian and European guidelines.
MDA-MB-453 and BT-474 breast cancer cell lines were originally obtained from by Dr. Serenella M. Pupa (Istituto Nazionale dei Tumori, Milan, Italy). Cell lines were authenticated by DNA fingerprinting on the 11 Nov. 2010 (performed by DSMZ, Braunschweig, Germany). Cells were routinely cultured in Roswell Park Memorial Institute (RPMI) medium supplemented with 10% foetal bovine serum and were maintained at 37° C. in a humidified 5% CO2 atmosphere. All medium constituents were purchased from Invitrogen, Milan, Italy. In order to visualize metastatic cells/lesions, breast cancer cell lines were transfected with a plasmid expressing Enhanced Green Fluorescent Protein (pEGFP-N1, Clontech, Mountain View, Calif.) using Lipofectamine 2000 (Invitrogen). Stable transfectants were selected using G418 (Invitrogen). EGFP expression was monitored by fluorescence microscopy and quantified by cytofluorimetric analysis.
Nine-20-week-old female Rag2^−/−;Il2rg^−/− mice were used throughout this work. Local tumors were induced with 10^7 viable human tumour cells injected either subcutaneously in the right hind leg or in the fat pad of the fourth (abdominal) left mammary gland in 0.2 ml of PBS. Tumor diameters were periodically measured with digital calipers and tumor volumes calculated as […], where a=maximal tumor diameter and b=major tumor diameter perpendicular to a. For intravenous (i.v.) administrations, 2×10^6 cells in 0.4 ml PBS were injected in a tail vein. Nude mice (5-6 week-old) were treated i.v. with anti-asialo GM1 antiserum (Wako, Dusseldorf, Germany), 0.4 ml of a 1:30 dilution in PBS, to deplete NK activity, 24 h prior to the injection of human tumour cells. Pilot experiments were performed to assess for each cell line the time at which experimental metastases could be detected.
Tumor-bearing mice were sacrificed at various times (see Results), depending on tumor and metastasis growth, and were subjected to an accurate necropsy. Lungs were stained with black India ink to better outline metastases and fixed in Fekete's solution. Lung and liver metastases were counted using a dissection microscope. When EGFP-expressing cells were injected, whole mice and dissected organs were carefully examined using a Lightools imaging system (Lightools Research, Encinitas, Calif.) to detect fluorescent metastatic deposits. Quantification of metastatic load in brain and bone marrow was performed by immunofluorescence followed by cytofluorimetric analysis and by Real-Time PCR. Brain was minced with scissors and passed through a 70 μm cell strainer (Becton Dickinson, Bedford, Mass., USA) to obtain a homogeneous cell suspension. Bone marrow was flushed from both femurs in PBS and filtered through a 70 μm strainer. A mouse monoclonal antibody against human HER-2 (clone Neu 24.7, Becton Dickinson, San Jose, Calif., USA) labeled with phycoerythrin was used to quantify human cells by cytofluorometric analysis. Real-Time PCR was performed on genomic DNA extracted with 10 mM Tris-HCl buffer pH 8.3 containing 50 mM KCl, 2.5 mM MgCl2, 0.01% gelatin, 0.45% igepal, 0.45% tween 20 and 120 μg/ml proteinase K (all reagents from Sigma, Milan, Italy) by an overnight incubation at 56° C. followed by […] incubation at 95° C. to inactivate the proteinase K. A sequence of the α-satellite region of the human chromosome 17 was amplified. […]

Nc1cc(C(F)(F)F)c(-c2cc(N3CCOCC3)nc(N3CCOCC3)n2)cn1 [Compound A, 5-(2,6-di-morpholin-4-yl-pyrimidin-4-yl)-4-trifluoromethyl-pyridin-2-ylamine]
penetration of the blood-brain barrier [1]: excellent penetration | inhibition in the number of human cells in the brain, HER-2 flow cytometry ([2]; 37 treatments, HER-2-positive cells in dissociated brain (FIG. 2B)): > 90% | inhibition in the number of human cells in the brain, human-specific qPCR ([2]; 37 treatments, brain metastatic burden by qPCR (FIG. 2A)): > 90% | number of bone metastases decreased ([2]; 37 treatments, visual count of metastatic sites per mouse (FIG. 2C)): 67% | growth of 453-EGFP in heavily colonized organs (brain and lungs) ([2]; brain and lungs (FIG. 1B-C)): strongly inhibited | incidence of metastases in different sites ([2]; brain, bone marrow and liver, p<0.05 at least, Fisher's exact test (FIG. 1A)): a sizeable proportion of mice were metastasis-free; also recorded: significant inhibition | reduction of the metastatic burden ([2]; different target organs): highly significant and widespread reduction
